Values of other authors, collected in patent publication US11207317B2, “Methylnaltrexone nasal formulations, methods of making, and use thereof” (AptaPharma Inc., priority 2012, dated 2021).

System: opioid-induced reduction in bowel motility
Conditions: healthy volunteers; intravenous or oral administration

## C[N@+]1(CC2CC2)CC[C@]23c4c5ccc(O)c4O[C@H]2C(=O)CC[C@@]3(O)[C@H]1C5 [methylnaltrexone, Methylnaltrexone]
  effect on opioid-induced reduction in bowel motility: reverse opioid-induced reduction in bowel motility
